Reference: PubChem BioAssay (NCI)
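Values below derive from 48-hour exposures of cells grown in 96-well plates, with endpoints linearly interpolated between the two concentrations bracketing the appropriate inhibition level. At the TGI there is no net growth.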

Columns and labels:
Test in all cases: DTP human tumour cell line panel, 48 h
HOP-62 NSCLC = test system: HOP-62 NSCLC
RPMI-8226 leukemia = test system: RPMI-8226 leukemia
CAKI-1 renal = test system: CAKI-1 renal
ACHN renal = test system: ACHN renal
NCI-H460 lung = test system: NCI-H460 lung
SF-295 CNS = test system: SF-295 CNS
SK-MEL-5 melanoma = test system: SK-MEL-5 melanoma
MDA-MB-435 = test system: MDA-MB-435
MCF7 breast = test system: MCF7 breast
SW-620 colon = test system: SW-620 colon

SMILES | TGI (HOP-62 NSCLC) [µM] | TGI (RPMI-8226 leukemia) [µM] | TGI (CAKI-1 renal) [µM] | TGI (ACHN renal) [µM] | TGI (NCI-H460 lung) [µM] | TGI (SF-295 CNS) [µM] | TGI (SK-MEL-5 melanoma) [µM] | TGI (MDA-MB-435) [µM] | TGI (MCF7 breast) [µM] | TGI (SW-620 colon) [µM]
COc1ccc([C@@H]2CC(=O)N2)cc1 | > 100 | > 100 | > 100 | > 100 | > 100 | > 100 | > 100 | – | – | –
CC(O)(P(=O)(O)O)P(=O)(O)OCC(O)CN1CCOCC1 (stereo not given) | > 100 | > 100 | > 100 | > 100 | > 100 | > 100 | – | > 100 | > 100 | > 100
O=C(O)c1ccc(C2=Cc3cc(Cl)ccc3OC2)cc1 | > 100 | > 100 | > 100 | > 100 | > 100 | > 100 | > 100 | – | – | > 100
CC(=O)NC(C)(C)C1CCC(C)=C(c2ccccc2)C1 (stereo not given) | > 100 | – | – | – | > 100 | > 100 | > 100 | > 100 | > 100 | > 100
O=C(O)c1cnc(-n2[nH]c3c(c2=O)CCCC3)[nH]c1=O | – | > 100 | > 100 | > 100 | > 100 | > 100 | > 100 | > 100 | – | > 100
CC(=O)Nc1ccc2[nH]c(C(=O)N3CC(CCl)c4c3cc([N+](=O)[O-])c3ccccc43)cc2c1 (stereo not given) | – | > 27.8 | > 29.9 | > 100 | > 100 | > 100 | > 100 | > 100 | > 100 | > 100
CC1CC/C(=C\c2ccc(F)cc2)C(=O)/C1=C/c1ccc(F)cc1 (stereo not given) | – | 5.52 | 12.1 | 13.6 | – | 7.38 | 24.1 | 28.4 | 16.6 | 87.6
CSc1ccn(C2CC(F)C(CO)O2)c(=O)n1 (stereo not given) | > 100 | – | > 100 | > 100 | > 100 | > 100 | > 100 | > 100 | > 100 | > 100
O=C1/C=C(/c2ccc(O)cc2)[C@@H](O)Cc2ccc(O)cc2O1 | > 100 | – | > 100 | > 100 | > 100 | > 100 | > 100 | – | – | > 100
O=c1[nH]cc(Cl)c(=O)[nH]1 | – | > 100 | > 100 | > 100 | > 100 | > 100 | > 100 | > 100 | > 100 | > 100
CCOC(=O)C(Cc1c[nH]c2cc([N+](=O)[O-])ccc12)NS(=O)(=O)c1ccc2ccccc2c1 (stereo not given) | 31.4 | > 100 | – | 57.9 | 35.5 | 32.5 | – | – | – | 44.4
Nc1ncn2c(n1)nc1ccccc12 | – | > 100 | > 100 | > 100 | > 100 | > 100 | > 100 | > 100 | > 100 | > 100
O=C(Nc1cccc([N+](=O)[O-])c1)c1n[nH]n(-c2cccc([N+](=O)[O-])c2)c1=O | > 100 | > 100 | > 100 | > 100 | – | > 100 | > 100 | > 100 | > 100 | > 100
S=c1[nH]n2c(CCCCCCCCc3nnc4sc(=S)[nH]n34)nnc2s1 | > 100 | > 100 | > 100 | > 100 | > 100 | > 100 | – | > 100 | > 100 | > 100
CCOC(=O)C(Cc1ccc(OC(=O)OC(C)(C)C)cc1)NC(=O)OC(C)(C)C (stereo not given) | > 100 | – | > 100 | > 100 | > 100 | > 100 | > 100 | > 100 | > 100 | > 100
NNC(=S)NCCNC(=S)NN | > 100 | > 100 | > 100 | > 100 | > 100 | > 100 | > 100 | > 100 | – | > 100
O=C(CSc1nc(-c2ccccc2)c(-c2ccccc2)[nH]1)N/N=C/c1ccc(O)cc1 | 46.5 | 60.6 | – | 55.9 | 44.8 | 57.4 | – | – | – | > 100
CCCCCCCCCCCC[C@@H](O)[C@H]1CCC([C@H](O)CCCCC(=O)CCCCCCCC2=C[C@H](C)OC2=O)O1 (stereo not given in full) | – | > 50 | > 50 | > 50 | > 50 | > 50 | > 20.2 | > 50 | > 50 | > 50
Clc1ccc(-c2cn3c(nc4ccccc43)c(/C=C/c3ccco3)n2)cc1 | > 100 | 39.8 | – | > 100 | > 100 | – | > 100 | > 100 | > 100 | > 100
O=c1ccn(C2OC(CO)C(O)C2F)c(=O)n1Cc1ccccc1 (stereo not given) | > 100 | > 100 | > 100 | > 100 | – | > 100 | > 100 | > 100 | > 100 | > 100
NC1=NS(=O)(=O)Nc2nc(-c3ccccc3)[nH]c21 | – | > 100 | – | > 100 | > 100 | > 100 | > 100 | – | – | > 100
COC(=O)N[C@H](C(=O)O)C(C)O[Si](C)(C)C(C)(C)C (stereo not given in full) | > 100 | > 100 | – | > 100 | > 100 | > 100 | > 100 | > 100 | > 100 | > 100
C=C1C(O)C[C@H](OC(C)=O)[C@]2(C)C1C(OC(C)=O)[C@]1(C(C)(C)O)CC(O)C(C)=C1[C@@H](OC(=O)c1ccccc1)C2OC(C)=O (stereo not given in full) | – | > 10 | > 10 | > 10 | > 10 | > 10 | > 10 | > 10 | > 10 | > 10
O=[N+]([O-])C(/C=N/Nc1ccccc1)/C=N/Nc1ccccc1 | > 100 | – | > 100 | > 100 | > 100 | > 100 | > 100 | – | – | > 100
